From patent publication US20230113501A1, “TREATMENT OF LEUKEMIAS AND LYMPHOMAS WITH COMBINATIONS OF BCL-2 INHIBITORS AND PLK1 INHIBITORS” (Cardiff Oncology, Inc., priority 2020, published 2023)

What was measured:
OCI-AML3 xenograft [1] = test: Efficacy of onvansertib alone and in combination with venetoclax in an OCI-AML3 xenograft model (tumor volume, survival); assay type: in vivo, CB17 NOD.SCID mice; details: onvansertib 40 mg/kg
OCI-AML3 xenograft [2] = test: as above; assay type: in vivo, CB17 NOD.SCID mice; details: for Average tumor volume: oral gavage; for Mean Diff. (vehicle vs. treatment), Dunnett's multiple comparisons test: tumor volumes from day 14
Procedure: In this example, the efficacy of onvansertib alone and in combination with venetoclax was evaluated in an OCI-AML3 xenograft model.
The OCI-AML3 cell line easily engrafts in NOD/SCID mice, maintaining the typical features of NPMc+ AML, including NPM cytoplasmic expression.
OCI-AML3 cells (DSMZ cat no: ACC 582) were cultured in RPMI supplemented with 10% FBS and 1%P/S, in a humidified incubator at 37° C. and 5% CO2. Normocin (Invivogen) was also added according to the manufacturer's recommendation to prevent mycoplasma growth.
(§1) CB17 NOD.SCID mice (female, 5 weeks old) were procured through Envigo (Strain NOD.CB17-Prkdc*scidNCrHsd). Mice were fed Teklad irradiated (sterilized) mouse diet and bedded with Teklad irradiated (sterilized) corncob bedding from Envigo (Indianapolis, Ind.). Mice were housed in Optimice carousel sterile quarters with filtered air supply in disposable cages from Animal Care Systems, Inc. (Centennial, Colo.).
On the day of implantation (Oct. 8, 2019), OCI-AML3 cells were collected and spun at 400 ×g. Media was aspirated and cells were resuspended in 50:50 *Cultrex:PBS (w/o calcium and magnesium) at a concentration of 1×10^8 cells/mL. A volume of 100 μL was injected into the right hind flank of each animal (a total of 1×10^7 cells). Filled syringes and cells were kept on ice to prevent gelling of matrigel. *Cultrex: BME, type 3, 17.24 mg/mL R&D systems Cat. #3632-005-02, Lot #40498J17
(§2) Tumor volumes were monitored, and, when mean tumor volume reached ˜200 mm^3, mice were stratified and placed into (4) treatment groups of (10) mice as outlined in Table 1.
(§3) Treatments were administered by oral gavage (polypropylene needles, Instech, Cat. FTP-20-38) daily for venetoclax for 14 days, and 5 days on 2 days off for two cycles for Onvansertib. For clarity, the combination was dosed so that venetoclax was given daily and the onvansertib was given 5 days on, 2 days off, just like the single agent groups.
Individual tumor volumes were measured by electronic caliper 2× a week.
Using tumor volumes from day 14 (the last day with all mice on study), an ordinary ANOVA test with a Dunnett's multiple comparison was performed using Prism (graphpad v. 8.3.0) (Table 4).
A survival graph was plotted (FIG. 2) and survival analysis (death=takedown for tumor burden limit) was also performed using Prism software (individual comparisons of survival curves using the Mantel-Cox test and Gehan-Breslow-Wilcoxon test shown in Table 5).

AML cell lines = details: cited from earlier work
[3] = patients with advanced/metastatic solid tumors, cited from earlier work
PLK1 = PLK1 (Homo sapiens, UniProt P53350); details: including other PLK members; cited from earlier work
Chain of PLK1 (P53350 whole entry): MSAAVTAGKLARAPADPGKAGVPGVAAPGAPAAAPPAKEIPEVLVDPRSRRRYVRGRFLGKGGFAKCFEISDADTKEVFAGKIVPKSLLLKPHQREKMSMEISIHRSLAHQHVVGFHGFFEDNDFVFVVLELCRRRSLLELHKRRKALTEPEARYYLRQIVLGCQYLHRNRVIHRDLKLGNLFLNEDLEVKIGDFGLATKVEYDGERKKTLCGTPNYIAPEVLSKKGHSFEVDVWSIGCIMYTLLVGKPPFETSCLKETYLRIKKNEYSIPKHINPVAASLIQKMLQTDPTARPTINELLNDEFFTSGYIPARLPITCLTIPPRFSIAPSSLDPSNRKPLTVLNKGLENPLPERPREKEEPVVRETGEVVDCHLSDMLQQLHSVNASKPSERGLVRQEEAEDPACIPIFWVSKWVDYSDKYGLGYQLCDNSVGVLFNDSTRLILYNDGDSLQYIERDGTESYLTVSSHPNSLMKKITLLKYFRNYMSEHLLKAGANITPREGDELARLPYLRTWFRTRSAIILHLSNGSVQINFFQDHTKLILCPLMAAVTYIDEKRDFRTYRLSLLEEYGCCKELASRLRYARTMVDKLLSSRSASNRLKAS

[4] = Animal health: body weight and tolerability in the OCI-AML3 xenograft study; assay type: in vivo, CB17 NOD.SCID mice; details: the values are: relative body weight (ratio to day 0)
Excerpt: as §1, §2, §3
All dosing was performed without any unexpected problems noted. […] Therefore, the single agents and combination were tolerated at the tested dose and schedule.
The group average change in weight relative to day 0 of the study is shown in […]

[5] = Day 0, venetoclax 75 mg/kg, onvansertib 30 mg/kg
[6] = Day 4, venetoclax 75 mg/kg, onvansertib 30 mg/kg
[7] = Day 7, venetoclax 75 mg/kg, onvansertib 30 mg/kg
[8] = Day 11, venetoclax 75 mg/kg, onvansertib 30 mg/kg
[9] = Day 14, venetoclax 75 mg/kg, onvansertib 30 mg/kg
[10] = Day 18, venetoclax 75 mg/kg, onvansertib 30 mg/kg

Row | SMILES | Average tumor volume (OCI-AML3 xenograft [2]; [5]) [mm^3] | Average tumor volume (OCI-AML3 xenograft [2]; [6]) [mm^3] | Average tumor volume (OCI-AML3 xenograft [2]; [7]) [mm^3] | Average tumor volume (OCI-AML3 xenograft [2]; [8]) [mm^3] | Average tumor volume (OCI-AML3 xenograft [2]; [9]) [mm^3] | Average tumor volume (OCI-AML3 xenograft [2]; [10]) [mm^3] | Mean Diff. (vehicle vs. treatment), Dunnett's multiple comparisons test (OCI-AML3 xenograft [2]) | Relative body weight (ratio to day 0) ([4]; Day 0) | Relative body weight (ratio to day 0) ([4]; Day 4) | Relative body weight (ratio to day 0) ([4]; Day 7) | Relative body weight (ratio to day 0) ([4]; Day 11) | Relative body weight (ratio to day 0) ([4]; Day 14) | Relative body weight (ratio to day 0) ([4]; Day 18) | other results
1 | CN1CCN(c2ccc(OC(F)(F)F)c(Nc3ncc4c(n3)-c3c(c(C(N)=O)nn3CCO)CC4)c2)CC1 [Onvansertib, 1-(2-hydroxyethyl)-8-{[5-(4-methylpiperazin-1l-yl)-2-(trifluoromethoxy)phenyl]amino}-4,5-dihydro-1H-pyrazolo[4,3-h] quinazoline-3-carboxamide] | 208.48 | 367.54 | 708.38 | 980.01 | 1461.86 | 2269.05 | 960 | 1 | 1.04 | 1.07 | 1.1 | 1.13 | 1.18 | Single agent activity in the previous study (OCI-AML3 xenograft [1]): single agent activity; Significant? Dunnett's multiple comparisons test (OCI-AML3 xenograft [2]; tumor volumes from day 14, vehicle vs. treatment): Yes; Survival, Gehan-Breslow-Wilcoxon test, Are the survival curves sig different? (OCI-AML3 xenograft [2]; vehicle vs. treatment): Yes; Survival, Log-rank (Mantel-Cox) test, Are the survival curves sig different? (OCI-AML3 xenograft [2]; vehicle vs. treatment): No; Survival, Log-rank (Mantel-Cox) test, Chi square (OCI-AML3 xenograft [2]; vehicle vs. treatment, death = takedown for tumor burden limit): 3.577; Survival, Gehan-Breslow-Wilcoxon test, Chi square (OCI-AML3 xenograft [2]; vehicle vs. treatment, higher weighing for early events): 5.221; Activity in the OCI-AML3 xenograft (conclusion) (OCI-AML3 xenograft [2]; venetoclax 75 mg/kg, onvansertib 30 mg/kg, and the combination): Activity was noted; Tumor growth inhibition as single agent (OCI-AML3 xenograft [2]; venetoclax 75 mg/kg, onvansertib 30 mg/kg): some tumor growth inhibition; Concentrations that inhibited cell proliferation (AML cell lines): nanomolar concentrations; Half-life [3]: 20 and 30 hours; Primary dose-limiting toxicities ([3]; reversible, recovery within 3 weeks): neutropenia and thrombocytopenia; Specificity for PLK1 among a panel of 296 kinases (PLK1): high specificity
2 | CC1(C)CCC(CN2CCN(c3ccc(C(=O)NS(=O)(=O)c4ccc(NCC5CCOCC5)c([N+](=O)[O-])c4)c(Oc4cnc5[nH]ccc5c4)c3)CC2)=C(c2ccc(Cl)cc2)C1 [Venetoclax] | 203.78 | 441.01 | 861.05 | 1362.15 | 2110.23 | 2856.33 | 311.6 | 1 | 1.03 | 1.07 | 1.09 | 1.12 | 1.15 | 
